Series [1] concerns A549/Taxol: the taxol-resistant substrain of A549. Kind of series: cells. Format: cell-based, human. The procedure: (§1) Experiment 1. Cytotoxicity Screening Assay at Cell Level of Compounds of this Invention
(§2) Tumor cells at log phase were incubated on 96-well plates at a density of 1˜1.2×10^4 cells/ml, 100 μl/well. 24 h later, treatment cells were exposed to the tested agents at different concentrations. Each tested agents had 4˜5 doses, and each dose had at least 3 parallel wells. Control cells were exposed to solvents in the same volume with treat agents. Cells were cultured at 37° C. in a cell incubator with 5% CO2 and 95% air atmosphere. After 4 days of culture, the incubation medium was removed, then 200 μl 0.2% MTT (prepared by RPMI 1640) was added to each well and the plates were incubated at 37° C. for 4 hours. The supernatant was discarded and dissolved the resulting formazen product with 200 μl DMSO in each well. The absorbance at a reference wavelength of 450 nm and a test wavelength of 570 nm was read on a microplate reader after tenderly shaking. Calculated drug inhibitory rate using the following equation and IC50, taking solvent exposure tumor cells as control cells.

Series [2] concerns KB/V: the vincristine-resistant substrain of KB. The experiment in a line: cells. Conditions: read-out: IC50(M) KB/V. Type of series: cell-based, human. How it is done: as §1, §2
In series [3] the test system is A549: the human lung adenocarcinoma cell strain. Kind of series: cells. Type of series: cell-based. The procedure: as §1, §2
Series [4] relates to KB: the human oral epithelium cancer cell strain. Kind of series: cells. Format: cell-based. The procedure: as §1, §2
The test system of series [5] is BGC-823. Kind of series: MTT cytotoxicity assay, BGC-823 cells. Type of series: cell-based, human. The settings on record: Homo sapiens, BGC-823, Table 2, read-out: IC50 (mol/L) BGC-823. How it is done: as §1, §2
The test system of series [6] is human gastric carcinoma BGC-823 nude mice-xenograft tumor. The experiment in a line: Growth inhibition on BGC-823-nude mice-xenograft tumor. The source says: (§3) Genera: BALB/c (nu-nu) nude mice
(§4) After one-week accommodation, animals were given subcutaneous implantation of the human lung adenocarcinoma A549 or the human ovarian cancer A2780 or the human gastric carcinoma BGC-823 cells. Animals were grouped randomly (d0) when the tumors reached 100-300 mm^3. […] Animal weights and tumor measurements were taken every […] and recorded. At the end of the study (d30 or d35), nude mice were euthanized and weighed. After the animals were sacrificed, tumor tissue was cut and weighed. Tumor volume was determined using the following equation: […]

Series [7] concerns human lung adenocarcinoma A549-nude mice-xenograft tumor. The experiment in a line: Growth inhibition on A549-nude mice-xenograft tumor.
Excerpt: as §3, §4

Series [8] relates to HCT-8. The experiment in a line: MTT cytotoxicity assay, HCT-8 cells. Format: cell-based. Conditions: Homo sapiens, HCT-8, Table 2, read-out: IC50 (mol/L) HCT-8. How it is done:
as §1, §2

The subject of series [9] is human ovarian cancer A2780-nude mice-xenograft tumor. The experiment in a line: Growth inhibition on A2780-nude mice-xenograft tumor.
Excerpt: as §3, §4

Series [10] deals with MCF-7/D: adriamycin-resistant subline of the human mammary adenocarcinoma cell strain MCF-7. The experiment in a line: MTT cytotoxicity assay, MCF-7/D cells. The settings on record: Homo sapiens, MCF7, Table 2, read-out: IC50 (mol/L) MCF-7/D. Type of series: cell-based. How it is done:
as §1, §2

For series [11], the system named is Lewis lung cancer. Kind of series: Inhibitory activity on mice Lewis lung cancer.
The subject of series [12] is BGC-803. The experiment in a line: MTT cytotoxicity assay, BGC-803 cells. Format: cell-based. Conditions: BGC803, Table 2, read-out: IC50 (mol/L) BGC-803. The procedure:
as §1, §2

The test system of series [13] is human mammary adenocarcinoma cell strain MCF-7. The experiment in a line: MTT cytotoxicity assay, MCF-7 cells. The settings on record: Homo sapiens, MCF7, Table 2, read-out: IC50 (mol/L) MCF-7. Type of series: cell-based. The procedure:
as §1, §2

The mark [14] stands for this setting: read-out: IC50(M) A549/Taxol, Table 1, MTT, 4 days of culture.
Where [15] appears, read: Table 1, MTT, 4 days of culture.
The mark [16] stands for this setting: Table 1, MTT, 4 days of culture, read-out: IC50(M) A549.
Where [17] appears, read: Table 1, MTT, 4 days of culture, read-out: IC50(M) KB.

Like-named read-outs stand apart in the source and are kept apart here.

With `C/C=C(\C)C(=O)N[C@@H](c1ccccc1)[C@@H](O)C(=O)O[C@H]1C[C@@]2(O)[C@@H](OC(=O)c3ccccc3)[C@@H]3[C@]4(OC(C)=O)CO[C@@H]4C[C@H](O)[C@@]3(C)C(=O)[C@H](O)C(=C1C)C2(C)C` [Example 1, 10-deacetyl-cephalomannine], the IC50 in series [1] (setting [14]), in series [2] (setting [15]) and in [3] (setting [16]) was over 1e-06 M each time.

On to `C/C=C(\C)C(=O)N[C@@H](c1ccccc1)[C@@H](O)C(=O)O[C@H]1C[C@@]2(O)[C@@H](OC(=O)c3cccc(N=[N+]=[N-])c3)[C@@H]3[C@]4(OC(C)=O)CO[C@@H]4C[C@H](O)[C@@]3(C)C(=O)[C@H](OC(=O)CC)C(=C1C)C2(C)C` [Example 2, 2-(3-azidobenzoyl)-10-propionyl-cephalomannine], for which the IC50 in series [1] (setting [14]) is over 1e-06 M; in series [2] (setting [15]), 1.53e-07 M; in series [3] (setting [16]) it was 8.79e-08 M.

On to `CC=C(C)C(=O)NC(c1ccccc1)C(O)C(=O)OC1CC2(O)C(OC(=O)c3cccc(OC)c3)C3C4(OC(C)=O)COC4CC(O)C3(C)C(=O)C(OC(=O)CC)C(=C1C)C2(C)C` (stereo not drawn) [Example 3, 2-(3-methoxybenzoyl)-10-propionyl-cephalomannine], for which the IC50 in series [1] (setting [14]) was over 1e-06 M; in series [2] (setting [15]), 8.02e-07 M; in series [3] (setting [16]), 7.04e-08 M.

Consider `C/C=C(\C)C(=O)N[C@@H](c1ccccc1)[C@@H](O)C(=O)O[C@H]1C[C@@]2(O)[C@@H](OC(=O)c3ccccc3)[C@@H]3[C@]4(OC(C)=O)CO[C@@H]4C[C@H](O)[C@@]3(C)C(=O)[C@H](OC(=O)CC)C(=C1C)C2(C)C` [Example 4, 10-propionyl-cephalomannine], for which the IC50 in series [1] (setting [14]) was determined as 4.21e-07 M; in [2] (setting [15]), 4.85e-07 M; in series [3] (setting [16]), 2.01e-07 M; in series [4] (setting [17]), 9.74e-09 M.

In the case of `C/C=C(\C)C(=O)N[C@@H](c1ccccc1)[C@@H](O)C(=O)O[C@H]1C[C@@]2(O)[C@@H](OC(=O)c3cccc(N=[N+]=[N-])c3)[C@@H]3[C@]4(OC(C)=O)CO[C@@H]4C[C@H](O)[C@@]3(C)C(=O)[C@H](OC(C)=O)C(=C1C)C2(C)C` [Example 5, 2-(3-azidobenzoyl)-cephalomannine], the IC50 was over 1e-06 M in series [1] (setting [14]), 2.23e-07 M in [2] (setting [15]), over 1e-06 M in [3] (setting [16]) and 5.9e-10 M in series [4] (setting [17]).

Turning to `C/C=C(\C)C(=O)N[C@@H](c1ccccc1)[C@@H](O)C(=O)O[C@H]1C[C@@]2(O)[C@@H](OC(=O)c3cccc(OC)c3)[C@@H]3[C@]4(OC(C)=O)CO[C@@H]4C[C@H](O)[C@@]3(C)C(=O)[C@H](OC(C)=O)C(=C1C)C2(C)C` [Example 6, 2-(3-methoxybenzoyl)-cephalomannine], the IC50 was over 1e-06 M in [1] (setting [14]), 8.94e-07 M in [2] (setting [15]), 2.1e-07 M in [3] (setting [16]) and 1.44e-07 M in series [4] (setting [17]).

For the compound `CC=C(C)C(=O)NC(c1ccccc1)C(O)C(=O)OC1CC2(O)C(OC(=O)c3cccc(OC)c3)C3C4(OC(C)=O)COC4CC(OC(=O)CC)C3(C)C(=O)C(O)C(=C1C)C2(C)C` (stereo not drawn) [Example 7, 2-(3-methoxybenzoyl)-7-propionyl-10-deacetyl-cephalomannine], the IC50 was over 1e-06 M in [1] (setting [14]), 2.79e-07 M in [2] (setting [15]), 2.51e-07 M in [3] (setting [16]) and 8.78e-09 M in [4] (setting [17]).

Take `C/C=C(\C)C(=O)N[C@@H](c1ccccc1)[C@@H](O)C(=O)O[C@H]1C[C@@]2(O)[C@@H](OC(=O)c3ccccc3)[C@@H]3[C@]4(OC(C)=O)CO[C@@H]4C[C@H](O)[C@@]3(C)C(=O)[C@H](OC(C)=O)C(=C1C)C2(C)C` [cephalomannine, reference compound]: the IC50 in [1] (Homo sapiens, A549/Taxol, 96 h, read-out: IC50(M) A549/Taxol) was over 1e-06 M; in series [2] (Homo sapiens, KBV, 96 h), 1e-06 M; in [3] (Homo sapiens, A549, 96 h, read-out: IC50(M) A549), 1.33e-07 M; in series [4] (Homo sapiens, KB, 96 h, read-out: IC50(M) KB) it was 5.18e-09 M.

Turning to `CC(=O)O[C@H]1C(=O)[C@@]2(C)[C@H]([C@H](OC(=O)c3ccccc3)[C@]3(O)C[C@H](OC(=O)[C@H](O)[C@@H](NC(=O)c4ccccc4)c4ccccc4)C(C)=C1C3(C)C)[C@]1(OC(C)=O)CO[C@@H]1C[C@@H]2O` [taxol, paclitaxel, reference compound], the IC50 in series [5] was 6.3 nM; in series [1] (Homo sapiens, A549/Taxol, 96 h, read-out: IC50(M) A549/Taxol, Table 1, MTT, 4 days of culture), over 1e-06 M; in series [1] (Homo sapiens, A549, Table 2, MTT assay, read-out: IC50 (mol/L) A549/T), 2.6e-08 M; in series [2] (Homo sapiens, KBV, 96 h, Table 1, MTT, 4 days of culture), 9.59e-07 M; in series [3] (Homo sapiens, A549, 96 h, Table 1, MTT, 4 days of culture, read-out: IC50(M) A549), 2.32e-07 M; in series [3] (Homo sapiens, A549, Table 2, MTT assay, read-out: IC50 (mol/L) A549) it was 5.2e-09 M. For the same compound, the IC50 stood at 8.66e-09 M in [4] (Homo sapiens, KB, 96 h, Table 1, MTT, 4 days of culture, read-out: IC50(M) KB); 1.8e-09 M in series [4] (Homo sapiens, KB, Table 2, MTT assay, read-out: IC50 (mol/L) KB); 0.73 nM in [8]; 330 nM in series [10]; 2.5 nM in series [12]; 0.41 nM in series [13]. Also, the RTV in series [6] (30 × 3 mg/kg i.p.) stood at 0.66; in [7] (30 × 3 mg/kg), 4.6; in series [9] (30 × 4 mg/kg i.p.), 4.4. The entries for the “T/C (%)” value in series [6] (30 × 3 mg/kg i.p.), in series [7] (30 × 3 mg/kg) and in series [9] (30 × 4 mg/kg i.p.) were 2.41%, 38.9% and 45.4%, respectively. For the same compound, the “Tv x ± SD d0” value is given as 98.8 ± 47.35 in series [6] (30 × 3 mg/kg i.p., d0) and 137.9 ± 21.0 in series [9] (30 × 4 mg/kg i.p., d0 (first administration)). For the same compound, the “Tv x ± SD dn” value amounted to 104.9 ± 144.9 in [6] (30 × 3 mg/kg i.p., dn 30 days after the first administration) and 604.8 ± 525.0 in series [9] (30 × 4 mg/kg i.p., dn: 30 days after the first administration). In addition, the “Body weight (g) end” value in [6] (30 × 3 mg/kg i.p., end) worked out at 23.9 g; in series [7] (30 × 3 mg/kg, end), 24.3 g; in [9] (30 × 4 mg/kg i.p., end), 23.3 g; in series [11] (10 × 6 mg/kg, end), 19.4 g. Further, the “Body weight (g) initial” value in series [6] (30 × 3 mg/kg i.p., initial) came out at 25.2 g; in series [7] (30 × 3 mg/kg, initial) it was 22.0 g; in series [9] (30 × 4 mg/kg i.p., initial), 22.7 g; in series [11] (10 × 6 mg/kg, initial), 19.7 g. Moreover, the “inhibition of tumor growth, conclusion in words” value is on record as “can inhibit the growth” in series [6] (BGC-823 nude mice-xenograft tumor, comparison with taxol); “can inhibit the growth” in [7] (A549 nude mice-xenograft tumor, comparison with taxol); “can inhibit the growth” in series [9] (A2780 nude mice-xenograft tumor, comparison with taxol); “can inhibit the growth” in series [11] (Lewis lung cancer, comparison with taxol). The “Tv x ± SD end” value in [7] (30 × 3 mg/kg, end) is 2152 ± 474. Moreover, the “Inhibition (%)” value in series [11] (10 × 6 mg/kg) is 31.64%. Further, the “Tumor weight (g) Average” value in series [11] (10 × 6 mg/kg) is recorded as 1.96 g.

These data come from US20110039921A1 (priority 2007, published 2011).
